Source: PubChem BioAssay AID256 (DTP/NCI, 2004)
Several values for one entry are separate records, joined by “and”; a condition that tells them apart may be missing. Equal entries are not always repeated. Toxic doses and inconclusive results are not listed. Rule for the calls: active = survival T/C of 150% or more; inactive = T/C below 125% in these data.

Test system: CD2F1 mice, L1210 leukemia ip, survival T/C
Experiment: NCI In Vivo Anticancer Drug Screen. Data for tumor model L1210 Leukemia (intraperitoneal) in CD2F1 (CDF1) mice
Details: higher = longer survival
Procedure, shortened: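 Read-out first: treated-group measurement over vehicle-control measurement, expressed as a ratio. Animals bore a transplanted tumor line and were dosed with compound or vehicle.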

[1] = endpoint: mean survival time, dose: 100.0 mg/kg/injection, schedule: Q01DX001 (ip), vehicle: saline with Tween-80
[2] = endpoint: mean survival time, dose: 200.0 mg/kg/injection, schedule: Q01DX001 (ip), vehicle: saline with Tween-80
[3] = endpoint: mean survival time, dose: 400.0 mg/kg/injection, schedule: Q01DX001 (ip), vehicle: saline with Tween-80
[4] = endpoint: mean survival time, dose: 100.0 mg/kg/injection, schedule: Q04DX003 (ip), vehicle: saline
[5] = endpoint: mean survival time, dose: 200.0 mg/kg/injection, schedule: Q04DX003 (ip), vehicle: saline
[6] = endpoint: mean survival time, dose: 100.0 mg/kg/injection, schedule: Q01DX001 (ip), vehicle: Klucel (hydroxypropylcellulose) (HPC)
[7] = endpoint: mean survival time, dose: 200.0 mg/kg/injection, schedule: Q01DX001 (ip), vehicle: Klucel (hydroxypropylcellulose) (HPC)
[8] = endpoint: mean survival time, dose: 400.0 mg/kg/injection, schedule: Q01DX001 (ip), vehicle: Klucel (hydroxypropylcellulose) (HPC)
[9] = endpoint: mean survival time, dose: 100.0 mg/kg/injection, schedule: Q01DX009 (ip), vehicle: saline with Tween-80
[10] = endpoint: mean survival time, dose: 200.0 mg/kg/injection, schedule: Q01DX009 (ip), vehicle: saline with Tween-80

Measured: T/C

Cc1ccc(SC(=O)Cc2ccc([N+](=O)[O-])cc2)cc1
inactive: [1] 92 % of control | [2] 88 % of control | [3] 93 % of control

CCOC(=O)c1cnc2c(cnn2CC)c1N1CCCCC1
inactive: endpoint: mean survival time, dose: 100.0 mg/kg/injection, schedule: Q04DX003 (ip), vehicle: Klucel (hydroxypropylcellulose) (HPC) 89 % of control | endpoint: mean survival time, dose: 200.0 mg/kg/injection, schedule: Q04DX003 (ip), vehicle: Klucel (hydroxypropylcellulose) (HPC) 97 % of control

CCC(/C=C/C(C)C1CCC2C3CCC45CC4CCC5(C)C3CCC12C)C(C)C (stereo not drawn)
inactive: endpoint: mean survival time, dose: 100.0 mg/kg/injection, schedule: Q04DX003 (ip), vehicle: saline with Tween-80 97 % of control | endpoint: mean survival time, dose: 400.0 mg/kg/injection, schedule: Q04DX003 (ip), vehicle: saline with Tween-80 87 % of control

Cc1cc(C)c([S-])c(C)c1.[Cu+]
inactive: endpoint: mean survival time, dose: 4.7 mg/kg/injection, schedule: Q04DX003 (ip), vehicle: saline 94 % of control | endpoint: mean survival time, dose: 9.4 mg/kg/injection, schedule: Q04DX003 (ip), vehicle: saline 94 % of control

Cc1ccccc1Nc1cc(=O)[nH]c(=O)[nH]1
inactive: [1] 95 % of control | [2] 95 % of control | [3] 94 % of control

c1cc(C2CCOCC2)ccn1
inactive: endpoint: mean survival time, dose: 50.0 mg/kg/injection, schedule: Q01DX009 (ip), vehicle: saline with Tween-80 109 % of control | [4] 92 % of control | [5] 90 % of control

OC[CH2][Hg][Br]
inactive: endpoint: mean survival time, dose: 0.37 mg/kg/injection, schedule: Q01DX009 (ip), vehicle: saline 90 % of control | endpoint: mean survival time, dose: 0.75 mg/kg/injection, schedule: Q01DX009 (ip), vehicle: saline 92 % of control | endpoint: mean survival time, dose: 1.5 mg/kg/injection, schedule: Q01DX009 (ip), vehicle: saline 95 % of control | endpoint: mean survival time, dose: 3.0 mg/kg/injection, schedule: Q01DX009 (ip), vehicle: saline 93 % of control

O=C(O)c1cc(Cc2ccc(O)c(C(=O)O)c2)ccc1O (tested in a mixture with another compound)
inactive: endpoint: median survival time, dose: 6.25 mg/kg/injection, schedule: Q01DX009 (ip), vehicle: Klucel (hydroxypropylcellulose) (HPC) 101 % of control | endpoint: median survival time, dose: 12.5 mg/kg/injection, schedule: Q01DX009 (ip), vehicle: Klucel (hydroxypropylcellulose) (HPC) 104 % of control | endpoint: median survival time, dose: 25.0 mg/kg/injection, schedule: Q01DX009 (ip), vehicle: Klucel (hydroxypropylcellulose) (HPC) 104 % of control | endpoint: median survival time, dose: 50.0 mg/kg/injection, schedule: Q01DX009 (ip), vehicle: Klucel (hydroxypropylcellulose) (HPC) 97 % of control | endpoint: median survival time, dose: 100.0 mg/kg/injection, schedule: Q01DX009 (ip), vehicle: Klucel (hydroxypropylcellulose) (HPC) 96 % of control | endpoint: median survival time, dose: 200.0 mg/kg/injection, schedule: Q01DX009 (ip), vehicle: Klucel (hydroxypropylcellulose) (HPC) 89 % of control

NC(=S)N/N=C1\c2cc(Cl)ccc2-c2c1cc(Cl)cc2[N+](=O)[O-]
inactive: endpoint: mean survival time, dose: 50.0 mg/kg/injection, schedule: Q01DX001 (ip), vehicle: carboxymethylcellulose (CMC) 102 % of control | endpoint: mean survival time, dose: 100.0 mg/kg/injection, schedule: Q01DX001 (ip), vehicle: carboxymethylcellulose (CMC) 102 % of control

O=c1nc(NCC2CCCO2)ccn1C1OC(CO)C(O)C1O (stereo not drawn)
inactive: endpoint: median survival time, dose: 12.5 mg/kg/injection, schedule: Q01DX005 (ip), vehicle: water 101 % of control | endpoint: median survival time, dose: 25.0 mg/kg/injection, schedule: Q01DX005 (ip), vehicle: water 101 % of control | endpoint: median survival time, dose: 50.0 mg/kg/injection, schedule: Q01DX005 (ip), vehicle: water 101 % of control | endpoint: median survival time, dose: 100.0 mg/kg/injection, schedule: Q01DX005 (ip), vehicle: water 97 % of control | endpoint: median survival time, dose: 200.0 mg/kg/injection, schedule: Q01DX005 (ip), vehicle: water 98 % of control

CC(=O)Nc1cc(S(=O)(=O)O)cc(N)c1O
inactive: [6] 114 % of control | [7] 103 % of control | [8] 106 % of control

CC(=O)Nc1ccc2c(c1)C(N1CC3CCC(CC3)C1)c1ccccc1-2 (stereo not drawn)
inactive: endpoint: mean survival time, dose: 50.0 mg/kg/injection, schedule: Q04DX003 (ip), vehicle: saline 105 % of control | [4] 103 % of control | [5] 103 % of control

NC1=NC(=O)CC(=O)N1
inactive: [1] 102 % of control | [2] 103 % of control

O=C1OCCC1C(=O)C(O)(C(F)(F)F)C(F)(F)F (stereo not drawn)
inactive: endpoint: mean survival time, dose: 100.0 mg/kg/injection, schedule: Q04DX003 (ip), vehicle: other 113 % of control | endpoint: mean survival time, dose: 200.0 mg/kg/injection, schedule: Q04DX003 (ip), vehicle: other 87 % of control | endpoint: mean survival time, dose: 400.0 mg/kg/injection, schedule: Q04DX003 (ip), vehicle: other 107 % of control

CCC(C)CC(C)N (stereo not drawn)
inactive: endpoint: mean survival time, dose: 100.0 mg/kg/injection, schedule: Q01DX001 (ip), vehicle: saline 104 % of control

CN(C1=CC(=O)C(N(C)C2CCCCC2)=CC1=O)C1CCCCC1
inactive: endpoint: mean survival time, dose: 3.75 mg/kg/injection, schedule: Q01DX009 (ip), vehicle: saline 94 % of control | endpoint: mean survival time, dose: 3.75 mg/kg/injection, schedule: Q04DX003 (ip), vehicle: saline 103 % of control | endpoint: mean survival time, dose: 7.5 mg/kg/injection, schedule: Q01DX009 (ip), vehicle: saline 90 % of control | endpoint: mean survival time, dose: 7.5 mg/kg/injection, schedule: Q04DX003 (ip), vehicle: saline 101 % of control | endpoint: mean survival time, dose: 15.0 mg/kg/injection, schedule: Q01DX009 (ip), vehicle: saline 89 % of control | endpoint: mean survival time, dose: 15.0 mg/kg/injection, schedule: Q04DX003 (ip), vehicle: saline 98 % of control

CCCCCCCCCCCCCCCCCCCCC1CCCCC1
inactive: [1] 91 % of control | [2] 98 % of control | [3] 92 % of control

CN(CC#N)N=Nc1ccc(C(N)=O)cc1
inactive: endpoint: mean survival time, dose: 4.68 mg/kg/injection, schedule: Q01DX009 (ip), vehicle: Klucel (hydroxypropylcellulose) (HPC) 96 % of control and 98 % of control | endpoint: mean survival time, dose: 9.37 mg/kg/injection, schedule: Q01DX009 (ip), vehicle: Klucel (hydroxypropylcellulose) (HPC) 102 % of control and 104 % of control | endpoint: mean survival time, dose: 18.75 mg/kg/injection, schedule: Q01DX009 (ip), vehicle: Klucel (hydroxypropylcellulose) (HPC) 95 % of control and 98 % of control | endpoint: mean survival time, dose: 37.5 mg/kg/injection, schedule: Q01DX009 (ip), vehicle: Klucel (hydroxypropylcellulose) (HPC) 102 % of control and 107 % of control | endpoint: mean survival time, dose: 75.0 mg/kg/injection, schedule: Q01DX009 (ip), vehicle: Klucel (hydroxypropylcellulose) (HPC) 118 % of control

Oc1cc(O)c2c(c1)OC(c1ccc(O)c(O)c1)C(OC1(c3cc(O)c(O)c(O)c3)Oc3cc(O)cc(O)c3C(O)C1O)C2 (stereo not drawn)
inactive: [4] 109 % of control | [5] 95 % of control | endpoint: mean survival time, dose: 400.0 mg/kg/injection, schedule: Q04DX003 (ip), vehicle: saline 107 % of control

O=C(O)CCC(=O)NNC(=O)c1cccnc1
inactive: endpoint: mean survival time, dose: 25.0 mg/kg/injection, schedule: Q04DX002 (ip), vehicle: saline with Tween-80 107 % of control | endpoint: mean survival time, dose: 50.0 mg/kg/injection, schedule: Q04DX002 (ip), vehicle: saline with Tween-80 104 % of control | [1] 106 % of control | endpoint: mean survival time, dose: 100.0 mg/kg/injection, schedule: Q04DX002 (ip), vehicle: saline with Tween-80 107 % of control | [2] 106 % of control | [3] 98 % of control

Cc1cc(C)c(C(=O)c2no[n+]([O-])c2C(=O)c2c(C)cc(C)c(Br)c2C)c(C)c1Br
inactive: [9] 97 % of control | [10] 97 % of control | endpoint: mean survival time, dose: 400.0 mg/kg/injection, schedule: Q01DX009 (ip), vehicle: saline with Tween-80 98 % of control

Nc1cccc2ccc(O)cc12
inactive: [6] 96 % of control | [7] 86 % of control | [8] 104 % of control

COc1ccc(OC)c(NC(=O)Nc2cc(Cl)c(OC)cc2OC)c1
inactive: [9] 87 % of control | endpoint: mean survival time, dose: 178.0 mg/kg/injection, schedule: Q01DX009 (ip), vehicle: saline with Tween-80 97 % of control | [10] 103 % of control | endpoint: mean survival time, dose: 266.0 mg/kg/injection, schedule: Q01DX009 (ip), vehicle: saline with Tween-80 95 % of control | endpoint: mean survival time, dose: 600.0 mg/kg/injection, schedule: Q01DX009 (ip), vehicle: saline with Tween-80 95 % of control
